From ChEMBL document CHEMBL1128237, “6-(4-pyridinyl)-1H-1,2,3-triazolo[4,5-d]-pyrimidin-4(5H)-one: a structurally novel competitive AMPA receptor antagonist” (J Med Chem, 1995)

Tests used:
[1] = target: T1, Glutamate receptor ionotropic AMPA (Homo sapiens, UniProt P42261+P42262+P42263+P48058); assay: (§1) Inhibition of Ionotropic glutamate receptor AMPA binding to human hippocampal homogenates at concentration of 5-7 uM; assay type: tissue-based, Hippocampus
[2] = target: T1, Glutamate receptor ionotropic AMPA; assay: Inhibition of Ionotropic glutamate receptor AMPA binding to human hippocampal homogenates; assay type: tissue-based, Hippocampus
[3] = Inhibition of [3H]-CGS 19755 binding to NMDA receptor at a concentration of 10 uM
[4] = Inhibition of [3H]-kainic acid binding to kainate receptor at a concentration of 10 uM
[5] = target: Glutamate receptor ionotropic AMPA (Homo sapiens) (UniProt P48058+P42263+P42262+P42261); assay: as §1; assay type: tissue-based; conditions: Hippocampus
[6] = Ability to antagonize kainate-induced responses in frog oocyte; assay type: functional
[7] = Ability to antagonize AMPA-induced responses in frog oocytes; assay type: functional, cell-based; conditions: oocyte

**Q.** For O=c1[nH]c2cc([N+](=O)[O-])c([N+](=O)[O-])cc2[nH]c1=O [DNQX], which IC50 [1] is on record?
**A.** Its IC50 is 280 nM.

**Q.** With Oc1[nH]c(-c2ccncc2)nc2ncnc1-2 as the compound, how does the IC50 [2] read?
**A.** Its IC50 is 1900 nM.

**Q.** With Oc1nc(-c2ccncc2)nc2c1ncn2C1CCCC1 as the compound, how does the IC50 [2] read?
**A.** Its IC50 is 2100 nM.

**Q.** And the inhibition at 10 µM [3]?
**A.** The inhibition at 10 µM was 25%.

**Q.** And the inhibition at 10 µM [4]?
**A.** The inhibition at 10 µM was 15%.

**Q.** For O=c1[nH]c(-c2ccncc2)nc2c1cnn2C1CCCC1, which inhibition [5] is on record?
**A.** The inhibition was less than 5%.

**Q.** For Nc1[nH]c(-c2ccncc2)nc2ncnc1-2, which inhibition [5] is on record?
**A.** Its inhibition is less than 5%.

**Q.** For Oc1nc(-c2ccncc2)nc2c(C3CCCC3)n[nH]c12, which inhibition [5] is on record?
**A.** The inhibition was less than 5%.

**Q.** Which inhibition [5] does the source give for Nc1[nH]c(-c2ccncc2)nc2nnnc1-2 here?
**A.** The inhibition was less than 5%.

**Q.** For Oc1[nH]c(-c2ccncc2)nc2nnnc1-2, which pA2 [6] is on record?
**A.** The pA2 was 6.2.

**Q.** What about the inhibition at 10 µM [3] of the same compound?
**A.** The inhibition at 10 µM was 17%.

**Q.** What about the inhibition at 10 µM [4] of the same compound?
**A.** The inhibition at 10 µM was 37%.

**Q.** What about the pA2 [7] of the same compound?
**A.** Its pA2 is 6.08.

**Q.** What about the IC50 [1] of the same compound?
**A.** Its IC50 is 1800 nM.

**Q.** For Cc1nc(O)c2c[nH]nc2n1, which inhibition [5] is on record?
**A.** The inhibition was less than 5%.
